# Results as given in publication PMC7113690 (Antiviral Research, 2015).
# Where a name gives a salt, the structure may show the parent alone. Read-outs that look alike come from different tables or passages of the source.
# How the values were obtained:
# [1] = test system: VSV G/HIV core pseudovirus (pVSV); test: organism not typed; type: cell-based; conditions: for EC50: read-out: EC50 pVSV
# [2] = test system: EBOV (Zaire strain) GP/HIV core pseudovirus (pEBOV); test: organism not typed; type: cell-based, Ebola virus (Zaire strain); conditions: for EC50: read-out: EC50 pEBOV
# eGFP-EBOV = conditions: cited from earlier work
# [3] = test system: EBOV pseudovirus (pEBOV) entry into Vero cells; type: cell-based, Ebola virus (Zaire strain)
# [4] = cited from earlier work
# [5] = test system: Coxsackievirus A16 (CV-A16, strain SHZH05-1); type: cell-based
# bacteremia = conditions: in vivo, 40 mg/kg; cited from earlier work
# [6] = in vivo; cited from earlier work
# [7] = test system: Ebola virus (Zaire strain) minigenome; type: cell-based
# EBOV = conditions: mouse, in vivo, 14 mg/kg; cited from earlier work
# [8] = test system: poliovirus 1 (PV1, strain Sabin); type: cell-based
# [9] = test system: enterovirus 71 (EV-A71, strain G082); type: cell-based
compound,measurement,setting,value
C[C@@H]1CC[C@H]2[C@@H](C)C(=O)O[C@@H]3O[C@@]4(C)CC[C@@H]1[C@]32OO4 [Artemisinin],EC50,"[1]; Vero, 72 h",162 µM
same,EC50,"[2]; Vero, 72 h",74.1 µM
O=C(OCC(O)CO)c1ccccc1Nc1ccnc2cc(Cl)ccc12 (centres unmarked) [Glafenine],EC50,"[1]; Vero, 72 h",10.9 µM
same,EC50,"[2]; Vero, 72 h",11.1 µM
CC(C(=O)O)c1ccc(N2Cc3ccccc3C2=O)cc1 (centres unmarked) [Indoprofen],EC50,"[1]; Vero, 72 h",8.51 µM
same,EC50,"[2]; Vero, 72 h",9.37 µM
Oc1c(I)cc(I)c2cccnc12 [Iodoquinol],EC50,"[1]; Vero, 72 h",3.45 µM
same,EC50,"[2]; Vero, 72 h",3.5 µM
C[C@H](N)[C@H](O)c1ccc(O)c(O)c1 [Levonordefrin],EC50,"[1]; Vero, 72 h",> 50 µM
same,EC50,"[2]; Vero, 72 h",> 50 µM
CCN(CC)CCOCCOC(=O)C(CC)(CC)c1ccccc1 [Oxeladin],EC50,"[1]; Vero, 72 h",38.1 µM
same,EC50,"[2]; Vero, 72 h",8.06 µM
Fc1ccc([C@@H]2CCNC[C@H]2COc2ccc3c(c2)OCO3)cc1 [Paroxetine],EC50,"[1]; Vero, 72 h",7.39 µM
same,EC50,"[2]; Vero, 72 h",2.4 µM
CN1CCC(=C2c3ccccc3Sc3ccccc32)CC1 [Pimethixene maleate],EC50,"[1]; Vero, 72 h",14.8 µM
same,EC50,"[2]; Vero, 72 h",10.7 µM
O=C1C=C2C=C[C@@H]3C[C@@]2(O1)[C@H]1CCCCN31 [Securinine],EC50,"[1]; Vero, 72 h",26.6 µM
same,EC50,"[2]; Vero, 72 h",27.1 µM
CN(C)CCOc1ccc(/C(=C(/CCCl)c2ccccc2)c2ccccc2)cc1 [Toremiphene],EC50,"[1]; Vero, 72 h",7.53 µM
same,EC50,"[2]; Vero, 72 h",0.38 µM
CN[C@H](CC(C)C)C(=O)N[C@H]1C(=O)N[C@@H](CC(N)=O)C(=O)N[C@H]2C(=O)N[C@H]3C(=O)N[C@H](C(=O)N[C@H](C(=O)O)c4cc(O)cc(O)c4-c4cc3ccc4O)[C@H](O)c3ccc(c(Cl)c3)Oc3cc2cc(c3O[C@@H]2O[C@H](CO)[C@@H](O)[C@H](O)[C@H]2O[C@H]2C[C@](C)(N)[C@H](O)[C@H](C)O2)Oc2ccc(cc2Cl)[C@H]1O [vancomycin],inhibition at 125 µM,"[2]; Vero, read-out: inhibition of pEBOV",24.7%
Teicoplanin,inhibition of pVSV infection,[1]; 125 µM,less than 20%
same,EC50,[1],> 125 µM
same,activity against eGFP-EBOV in vitro,eGFP-EBOV,active
same,"inhibition of pEBOV infection, during infection",[3],efficiently inhibited infection
same,"inhibition of pEBOV infection, post-attachment",[3],no inhibition was detected
same,"inhibition of pEBOV infection, pre-attachment",[3],efficiently inhibited infection
same,bound to plasma protein,[4],90%
same,inhibition of CV-A16,[5],no inhibition was observed
same,inhibition of pEBOV infection (in words),[2]; 125 µM,completely inhibited
same,EC50,[2],2.38 µM
same,EC90,[2]; read-out: EC90 pEBOV,9.36 µM
same,safety and decrease of bacteremia,bacteremia,safe and effectively in decreasing bacteremia
same,Cmin at which toxicity is seen,[6],≥ 60000 ng/mL
same,trough plasma concentration (Cmin),[6],20000 to 60000 ng/mL
same,CC50,Vero cells,> 125 µM
same,cytotoxicity,Vero cells,without cytotoxicity
same,inhibition of EBOV minigenome replication,[7],did not inhibit
same,protection of EBOV-infected mice,EBOV,no protection was observed
same,inhibition of PV1,[8],no inhibition was observed
same,inhibition of EV-A71,[9],no inhibition was observed
